This is an account of results in patent US20200253996A1, “TCTP INHIBITING AGENTS FOR THE TREATMENT OF PROLIFERATIVE DISEASES, INFECTIOUS DISEASES, ALLERGIES, INFLAMMATIONS AND/OR ASTHMA” (UNIVERSITE PARIS-SUD, priority 2017, published 2020).

Like-named read-outs stand apart in the source and are kept apart here.

One series deals with human HCT116 cells. The series can be described thus: Inhibition of cell growth, CellTiter Glo assay. As to conditions: for GI50: Homo sapiens. The procedure: The viability and proliferation of human HCT116 cells is measured using the “CellTiter Glo®” assay (Promega), which is a luminescent measure of the number of living cells. Sertraline and AC070 were tested at 10 concentrations and results are expressed as GI50, TGI, LC50 and IC50 relative to control cells (DMSO).
The CellTiter-Glo® assay is a homogeneous method for determining the number of viable cells in culture based on a quantification of the ATP present, an indicator of metabolically active cells. The homogeneous test procedure involves the addition of a single reagent (the CellTiter-Glo® reagent) directly to the cultured cells in serum-enriched medium.
The results of the test are reported in the following Tables 2 and 3 (Table 2: sertraline and Table 3: AC070): […]
(ATP-based viability assays read luminescence as a measure of living cells.)

For series [1] the following is noted: humans; cited from earlier work.
Another series relates to p53 protein. The series can be described thus: Overexpression of p53 protein, Western blot. The class given is cell-based. The note with it: 10 μM. The procedure: The compound AC014 is capable of inducing overexpression of p53 (FIG. 1).
The Western blot was carried out according to the protocol described in the following article: Amson R, Pece S, Lespagnol A, Vyas R, Mazzarol G, Tosoni D, Colaluca I, Viale G, Rodrigues-Ferreira S, Wynendaele J, Chaloin O, Hoebeke J, Marine J C, Di Fiore P P, Telerman A. Nat Med. 2011 Dec. 11; 18(1):91-9.
The following antibodies were used in the Western blot assay: anti-TCTP antibodies were generated against the whole human-derived TCTP. These polyclonal antibodies were purified by affinity column affinity coupled to TCTP (Agro-Bio). Anti-P53 1C12 mouse antibody (Cell Signaling Technology) was used at a dilution of 1/1000.
Secondary antibodies (antirabbit and antimouse) conjugated to HRP were used at a dilution of 1/5000 to visualize the signals by Western blots.

The target of series [2] is T1, TCTP (Homo sapiens, UniProt P13693).
T1 sequence (P13693 1-172): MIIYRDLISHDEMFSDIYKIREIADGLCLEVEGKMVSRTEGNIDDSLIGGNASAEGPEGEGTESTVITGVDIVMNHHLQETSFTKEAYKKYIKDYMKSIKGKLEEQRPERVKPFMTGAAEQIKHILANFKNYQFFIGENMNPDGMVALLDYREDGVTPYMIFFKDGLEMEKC
The note with it: prior art section; read-out: affinity for TCTP, Kd; cited from earlier work.

Series [3] concerns human cancer line HCT116 (colorectal carcinoma). Kind of series: Cytotoxic activity on HCT116, 72 hours incubation. The class given is cell-based. Here is the method:
The cytotoxic activity of the prepared compounds was evaluated on the human cancer line HCT116 (colorectal carcinoma). The selected line was incubated at 37° C. in the presence of one of the prepared compounds added to the culture medium at various concentrations. The inhibitory concentration inducing 50% cell death (IC50) was determined after 72 hours incubation for each compound (Table 1).

In series [4] the target is T1, TCTP. The series can be described thus: Interaction with TCTP by surface plasmon resonance (SPR), Biacore T200. The class given is binding. The procedure:
The interaction of the synthesized molecules with TCTP was evaluated by the surface plasmon resonance (SPR) technique using the Biacore T200 apparatus.
A beam of polarized monochromatic light illuminates a glass interface between two media with different refractive indices, since the angle of incidence is greater than the limiting angle, all the light is reflected, a phenomenon known as total internal reflection. There is then no refraction but an electromagnetic component of the light, the evanescent wave propagates over a distance equivalent to its own wavelength, perpendicular to the interface. At the level of the gold leaf located at the interface between the two media, a resonance between the gold plasmons and the evanescent wave is observed, which results in a loss of light energy in the beam reflected at a precise angle called the resonance angle. This angle is sensitive to the refractive index of the medium wherein the evanescent wave propagates.
A continuous measurement of the variations in the angle of refraction is carried out using a micro-refractometer producing a sensorgram that allows the fixation of the molecules injected into the microfluidic cell to be monitored in real time. The resonance signal is expressed in resonance units (RU) and reports what is present at a given time in the microfluidic cell.
Thus, TCTP is bonded to a chip consisting of a layer of dextran on a gold foil, which in turn is placed on a glass plate. This layer is sandwiched between a microfluidic cell and a prism.
The synthesized compounds are passed through the microfluidic cell and their interaction is evaluated through the received SPR signal (Table 1).

By GI50 is commonly meant the concentration giving 50% growth inhibition. The Kd is the concentration at which binding is half-saturated. Consider `CN[C@H]1CC[C@@H](c2ccc(Cl)c(Cl)c2)c2ccccc21` [sertraline, reference compound], for which, in the series with human HCT116 cells (HCT116, CellTiter Glo, determination 1), the TGI50 1 worked out at 0.203 µM. This molecule also displayed a TGI50 2 with human HCT116 cells (HCT116, CellTiter Glo, determination 2) of 0.229 µM. Also, the TGI50 3 with human HCT116 cells (HCT116, CellTiter Glo, determination 3) worked out at 0.253 µM. In the series on human HCT116 cells (HCT116, CellTiter Glo, mean), the TGI50 Mean worked out at 0.228 µM. This molecule came in with a TGI50 Median in the series with human HCT116 cells (HCT116, CellTiter Glo, median) of 0.227 µM. For the same molecule, the GI50 in the series with human HCT116 cells (HCT-116, read-out: GI50 1) was 125 nM; in the series on human HCT116 cells (HCT-116, read-out: GI50 2), 141 nM; in the series with human HCT116 cells (HCT-116, read-out: GI50 3), 159 nM; in the series on human HCT116 cells (HCT-116, read-out: GI50 Mean) it was 142 nM; in the series with human HCT116 cells (HCT-116, read-out: GI50 Median) it was 140 nM; in the series on human HCT116 cells (HCT-116, read-out: cell growth inhibition constant GI50), 141 nM. The “maximum tolerated dose (MTD)” value in series [1] was 400 mg/day. Also, the “expression of the p53 protein” value in the series on p53 protein is recorded as “induced”. On TCTP [2], the Kd is 198000 nM.

Broadly, the IC50 is the concentration needed to halve the response being measured. Read a high IC50 as weaker potency. As to `c1ccc2c(c1)CCCC2c1ccc2ccccc2c1` (centres unmarked) [AC014, 1,2,3,4-tetrahydro-1,2′-binaphthalene], the IC50 in series [3] (Homo sapiens, HCT-116, HCT116, 72 hours incubation, concentration inducing 50% cell death) came out at 8000 ± 1000 nM. Also, the “antiproliferative activity profile (in words)” value in series [3] (compared with sertraline) is reported as “identical to that of sertraline”. Further, the “affinity for TCTP (in words)” value at TCTP [4] is “excellent affinity”. On TCTP [4] (TCTP bonded to chip, Biacore T200), this molecule showed a Kd of 7000 ± 3000 nM. For the same molecule, in the series with p53 protein, the “expression of the p53 protein” value is recorded as “induces” and the “induction of p53 compared to sertraline” value is “more pronounced”.
